A word on the melting point: it is the temperature of the solid-liquid transition.

Our source for the melting point values is a melting point compilation (Tetko et al.; mined from patent text by program, amines drawn as free bases though some values may be those of a salt).

Each structure is given as a SMILES string.

For the compound `COc1cc(OC)nc(NC(=O)NS(=O)(=O)Nn2cccc2C(=O)N(C)C)n1`, the melting point is 150 to 152 °C.
Regarding `CNc1cc(-n2ccc3ccccc32)cc(C)n1`, the melting point was 156 to 158 °C.
As to `CN(C)C=NS(=O)(=O)c1ccccc1-c1ccc(Cn2c(-c3ccccc3)nc(Cl)c2C=O)cc1`, the melting point came to 193 °C.
Consider `COc1cc(C(C)=O)ccc1OCCCN1CCN(c2n[nH]c3cc(F)ccc23)CC1`, for which the melting point was in the range of 135 to 137 °C.
In turn, `FC(F)(F)c1cccc(N2CCN(c3nc4cccc5c4n3CCC5)CC2)c1` displayed a melting point of 158 to 159 °C.
As to `CCOC(=O)CNC(=O)OCc1ccc(OC(C)=O)c(OC)c1`, the melting point fell in the range of 62 to 64 °C.
The compound `CCCCCN1C(=O)C2(COc3cc(F)c(F)cc32)c2ccccc21` (centres undefined) showed a melting point of 48 to 50 °C.
The figure for `Cc1cc(Cn2c(-c3ccccc3)nc(Cl)c2CC#N)ccc1O` is 194 to 196 °C.
In turn, `O=c1c2cc(Oc3ccc(Cl)cc3)ccc2ccn1Cc1cccnc1` came in with a melting point of 116 °C.
`CC(=O)c1ccc(Oc2ccc(Cl)cc2)cc1` came in with a melting point of 66 to 68 °C.
`COC(=O)c1ccc2c(c1)Sc1ccccc1N=C2Cl` came in with a melting point of 134 to 136 °C.
`CCS(=O)(=O)Nc1cc(-n2nc(C(F)F)n(C)c2=S)c(F)cc1C(N)=S` gave a melting point of 183 °C.
Then `CCOC(=O)C1=C(C)NC(C)=C(C(=O)OCCN2CCN(C(c3ccc(C)cc3)c3ccc(C)cc3)CC2)C1c1cccc(Cl)c1` (centres undefined), with 79 to 81 °C; and `COC(=O)c1ccc(OC)cc1S(N)(=O)=O`, with 135 to 139 °C; and `CCCn1c(=O)c2cc(C(=O)O)cn2c2ccccc21`, with 260 to 262 °C.
Take `CC1(C(=O)NCCc2cccs2)CCCCC1`: the melting point is 79 to 80 °C.
`CCc1c(-c2ccc(OC)cc2)c2c(C(=O)OC)c(C(=O)OC)c3cc(OC)cc1n32` came in with a melting point of 153 to 155 °C.
The compound `CS(=O)(=O)C(=C1CN(C(c2ccccc2)c2ccccc2)C1)c1cccc(N2CCCC2)c1` had a melting point of 153 °C.
The figure for `CCCCC(=O)NCc1ccc(I)cc1` is 80 to 81 °C; for `CNCCNCc1ccc(-c2cc3ncnc(Nc4ccc5[nH]ccc5c4)c3s2)cc1` it is 93 to 105 °C.
As for `CCOC(=O)c1cn(C2CCCO2)c(=O)[nH]c1=O` (centres undefined), the melting point is 125 °C.
On to `O=c1[nH]c(-c2ccc(CCN3CCN(c4cccc(C(F)(F)F)c4)CC3)cc2)cs1`, for which the melting point lay within 285 to 287 °C.
`CC(C)[C@@H]1COC(=O)N1C(=O)[C@@H](CC(=O)OC(C)(C)C)Cc1ccccc1`: the melting point fell in the range of 167 to 168 °C.
Compound `Fc1cccc(F)c1-c1cccnc1` yielded a melting point of 194 to 196 °C.
Regarding `CCOC(=O)NN1CCN(CCCCC(=O)c2ccccc2)CC1`, the melting point was 105 to 106 °C.
The compound `CCOC(=O)C1=C(C)N(C(C)=O)C(c2csc(C)n2)=NC1C1(F)C=CC=CC1Cl` (centres undefined) returned a melting point of 164 to 166 °C.
For `CC(C)(C)Nc1c(NCc2ccc(C(F)(F)F)cc2)c(=O)c1=O`, the melting point lay within 306 to 308 °C.
Then `COc1cc(COc2nn(-c3ccccc3)cc2CO)ccc1OCc1nc(-c2ccco2)oc1C`, with 127 to 128 °C; and `O=C(c1ccc2[nH]c(=O)n(Cc3ccc(F)cc3)c(=O)c2c1)c1nc(Br)c2ccccn12`, with 325 °C.
Compound `O=C1c2ccccc2C2C(c3ccccc31)C2(F)F` (centres undefined) registered a melting point of 150 °C.
In turn, `N#Cc1c2cccccc-2n(CC(=O)O)c1=O` displayed a melting point of 294 to 295 °C.
`COC(=O)c1cc(O)nn1Cc1ccccc1` came in with a melting point of 82 to 84 °C.
Compound `O=C1CCC(c2ccccc2)(c2ccccc2)[C@@H]2CN(C(=S)Cc3ccccc3)C[C@H]12` (racemic) showed a melting point of 221 °C.
On to `CCc1cc(Oc2ncc(C(F)(F)F)cc2Cl)nn1C(=O)NC`, for which the melting point was in the range of 85 to 87 °C.
For the compound `COc1ccccc1C1(c2ccc(N(C)C)cc2)OC(=O)c2cc(N(C)C)ccc21` (centres undefined), the melting point was in the range of 215 to 216 °C.
`O=C(O)c1cc(NCc2c(F)c(F)c(C(F)(F)F)c(F)c2F)ccc1OC(=O)C1CCCCC1` came in with a melting point of 190 to 193 °C.
In turn, `Clc1ncc(-c2ccc3ccncc3c2)c2ccccc12` yielded a melting point of 169 to 170 °C.
Consider `COC(=O)CSc1cc(C)ccc1[N+](=O)[O-]`, for which the melting point was 74 to 75 °C.
Then `CC(=O)OCc1cc2c(Cl)ccc(-n3c(=O)cc(C(F)(F)F)n(C)c3=O)c2o1`, with 135 to 138 °C.
The compound `CCOc1ccc(CC(=O)NCCc2ccc(OC(C)C)c(OC(C)C)c2)cc1OCC` returned a melting point of 71 °C.
As to `COc1ccc2c(c1)C(CCNC(C)=O)CN(Cc1ccccc1)C2` (centres undefined), the melting point lay within 123 to 125 °C.
Then `Oc1ccc(-c2noc(C3(C(O)(C4CC4)C4CC4)CC3)c2-c2ccccc2)cc1`, with 169 to 170 °C; and `CC(C=CC1=C(C)C(=O)CC1(C)C)=CC=O`, with 91 to 93 °C.
In turn, `O=c1[nH]c(CSCc2ccccc2)nc2nccnc12` had a melting point of 224 to 226 °C.
The compound `N#CCc1cccc(Cn2ccc(OCc3ccc(F)cc3F)c(Br)c2=O)c1` displayed a melting point of 120 to 121 °C.
Compound `CC1=C(CNC(=O)NCc2ccccc2)c2cc(F)ccc2/C1=C\c1ccc(S(C)(=O)=O)cc1` came in with a melting point of 204 °C.
The figure for `O=c1ccnc(NCCCN(Cc2cccc(Cl)c2)c2ccccn2)[nH]1` is 74 to 78 °C.
Then `CCOCCOc1cc(N2C(=O)C3=C(CCCC3)C2=O)c(F)cc1C#N`, with 90 °C; and `CCc1nc2c(C#N)cccc2n1-c1ccc(CCNC(=O)NS(=O)(=O)c2ccc(C)cc2)cc1`, with 95 to 103 °C; and `O=C(O)c1nccc(OCc2ccccc2)c1OCc1ccccc1`, with 120 °C.
In turn, `CC(C)(C)C(=O)C(Br)Oc1ccc(S(=O)(=O)c2ccccc2)cc1` (centres undefined) had a melting point of 157 to 162 °C.
Then `COc1ccc2cc3c(=O)n(C)cc(C(=O)NCCN(C)C)c3nc2c1`, with 213 to 215 °C; and `COc1c(N2CC[C@@H](C3(NC(=O)OC(C)(C)C)CCC3)C2)ccc2c(=O)c(C(=O)O)cn([C@@H]3C[C@@H]3F)c12`, with 174 °C.
As to `CCn1ncc2c(NCC3CCCCC3)c3cc(O)ccc3nc21`, the melting point is 223 to 224 °C.
For `N#CC[C@@H]1CC[C@@H]2CN(c3noc4ccccc34)CCN2C1` (relative stereo), the melting point lay within 184 to 186 °C.
As for `CC(CS)C(=O)N(CC(=O)O)C1CCCCC1` (centres undefined), the melting point fell in the range of 158 to 160 °C.
Compound `COc1cccc(NC(=O)NCc2ccc(Nc3n[nH]c4ncnc(Nc5cccc(Cl)c5)c34)cc2)c1` registered a melting point of 157 to 160 °C.
The figure for `COc1ccc2c(c1)C(=O)CC(C)(C)O2` is 71 to 73 °C; for `CCN(CC)C(=O)C1=NN(c2ccccc2)C(C(N)=O)=NN1c1ccccc1` it is 239 to 240 °C.
The figure for `CCOC(=O)c1c(C)nc2c(c1N)c1ccccc1n2C` is 79 to 80 °C.
The compound `CS(=O)c1c(C(=N)NN)nn(-c2c(Cl)cc(C(F)(F)F)cc2Cl)c1N` (centres undefined) registered a melting point of 210 °C.
The compound `O=C(O)Cc1cn(C(=O)c2cncs2)c2ccc(Cl)cc12` gave a melting point of 175 to 180 °C.
`CC(C)(C)OC(=O)N[C@H](CCOc1ccc(C#N)cc1)C(=O)O` yielded a melting point of 132 to 146 °C.
The compound `CC(=O)Nc1ccc(Cl)cc1NC(C)=O` yielded a melting point of 216 °C.
`CCC(=NOC)C(=NO)C(=O)NC` yielded a melting point of 168 to 170 °C.
`COCCOc1ccc(/C=C/COC(=O)NS(=O)(=O)N2CCCC2)c(Oc2ncc(C(F)(F)F)cc2Cl)c1` yielded a melting point of 123 to 124 °C.
Compound `COc1cccc(CN2CCN(C)CC2C2=NCCN2)c1` (centres undefined) gave a melting point of 78 to 80 °C.
The figure for `Fc1ccccc1CNc1nc(Cl)ncc1F` is 117 to 118 °C; for `CCOC(=O)c1ncc2[nH]c3c(C(C)(C)C)cc(C(C)(C)C)cc3c2c1C` it is 260 to 263 °C; for `Cc1nnc(C2=C(O)c3ccccc3S(=O)(=O)N2C)o1` it is 226 to 227 °C.
`CC(C)NC(=O)c1ccccc1F` had a melting point of 76 to 78 °C.
In the case of `CN(C)CSc1ccc(-n2cnnn2)cc1`, the melting point fell in the range of 56 to 57.5 °C.
Compound `COC(=O)NNc1cc(C)c(Cl)c2c1OC(C)C2` (centres undefined) returned a melting point of 157 to 160 °C.
Consider `Nc1scc2c(C(=O)NC3CC3)nn(-c3ccc(Cl)cc3)c(=O)c12`, for which the melting point is 188 to 190 °C.
Then `O=c1[nH]ncc2[nH]c(-c3ccc(OC(F)F)c(OC4CC4)c3)c(Cl)c12`, with 281 to 283 °C.
Regarding `CCOC(=O)c1cnc2c(c(C)nn2-c2ccccn2)c1N`, the melting point fell in the range of 147 to 149 °C.
The figure for `CN(C)N1CSC(=CCc2cc(C(C)(C)C)c(O)c(C(C)(C)C)c2)C1=O` is 181 to 186 °C; for `N#Cc1ccc(NS(=O)(=O)c2ccc(Cl)cc2)cc1` it is 182 to 184 °C; for `O=C(C(=C1SCS1)c1ccncc1)c1ccc(Cl)cc1` it is 149 to 151 °C.
`CC1(C)Cc2ccsc2C=[N+]1[O-]` registered a melting point of 136 to 138 °C.
Regarding `CCCCn1c(=O)c2c(ncn2S(=O)(=O)c2ccc(OC)c(OC)c2)n(CCCC)c1=O`, the melting point was in the range of 134 to 135 °C.
`N#Cc1cc(-c2ccoc2)c2ccc(COc3cc(F)cc(-c4ccccc4)c3)cc2n1` displayed a melting point of 150 to 152 °C.
Compound `CC[C@H]1CN(c2c(F)cc3c(=O)c(C(=O)O)cn(C4CC4)c3c2C)C[C@H]1N` showed a melting point of 148 to 150 °C.
`CC(=O)c1cc2c(c(C=O)c1O)CCCC2` showed a melting point of 77.5 to 78.5 °C.
In turn, `COC(=O)c1cc(I)cn1[Si](C(C)C)(C(C)C)C(C)C` returned a melting point of 81 to 83 °C.
`CCOc1nc(Nc2ccc(F)c(Cl)c2)nc(NC2CCN(S(C)(=O)=O)CC2)n1` displayed a melting point of 197 to 199 °C.
Then `Cc1ccc(N2C(=O)C3=C(SCCO3)C2OC(=O)N2CCN(C)CC2)nc1` (centres undefined), with 183 °C; and `Cc1nnc(-c2ccc3occ(-c4ccc(S(=O)(=O)N(C)C)cc4)c3c2)o1`, with 246 to 247 °C.
The figure for `CS(=O)(=O)Nc1cc(NC(=O)CN2C(=O)c3ccccc3C2=O)ccc1Oc1ccccc1` is 208 to 209 °C.
